Tests used:
[1] = biological target: human calcitonin receptor (CTR) and RAMP3 (AMY3) (Homo sapiens, UniProt O60896+P30988); test: Amylin Receptor cAMP Assay II; assay type: cell-based; settings: COS-7/AMY3 cells, cAMP dynamic 2 kit, read-out: Amylin Receptor cAMP Stimulation Activity: EC50
Description: Amylin Receptor cAMPAssay II
AMYRs are heterodimers of the class B calcitonin (CT) G-protein-coupled receptor (CTR) and receptor activity-modifying proteins (RAMPs). All three RAMPs can interact with the CTR and form AMY1, AMY2, AMY3 with RAMP1, RAMP2 and RAMP3, respectively. Like other class B1 GPCRs, the CT receptor family is canonically coupled to Gs-mediated cAMP production, and measurement of cAMP accumulation has been the primary assay used to determine peptide selectivity and potency.
(§1) To optimize functional activity directed toward Gas coupling, COS-7 cells were stably transfected with human calcitonin receptor (CTR) and RAMP3, simultaneously. 100×concentration of compound working solutions were prepared with 4-fold serial dilution in 384-well Echo LDV plate (Labcyte, Cat #LP-0200-BC). 200 nL/well 100×concentration of compound working solutions were moved to 384-well white microplate (Perkin Elmer, Cat #6007680) using Labcyte ECHO550. […] cells/mL COS-7/AMY3 cell suspensions prepared with assay buffer [HBSS containing 20 mM HEPES (Gibco, Cat #15630-080), 0.5 mM IBMX (Sigma, Cat #15879) and 0.1% Casein (Sigma, Cat #C4765)], 20 μL cell suspensions were added to each well of previous generated assay plate which already contains 200 nL compound at 100×concentration using ThermoFisher Multidrop Combi (2000 cells/well). Seal the plate and incubate at 37° C. with 5% CO2 for 30 min.
(§2) After incubation, the cAMP assay signal was generated using cAMP dynamic 2 kit (Revvity, Cat #62AM4PEC). 10 μL cAMP-d2 working solution was added to each well, followed by 10 μL Anti-cAMP antibody-cryptate working solution which was added to each well using CERTUS FLEX LIQUID DISPENSER The samples were then incubated at room temperature for 1 hour protected from light. the fluorescence was read at 665 and 615 nm with Reader PerkinElmer EnVision 2105.

[2] = biological target: T1, human calcitonin receptor (CTR) (Homo sapiens, UniProt P30988); test: Calcitonin receptor (CTR) cAMP Assay; assay type: cell-based; settings: COS7-human CTR Clone #2 cells, cAMP dynamic 2 kit; read-out: Calcitonin Receptor cAMP Stimulation Activity: EC50
T1 construct: expressed in transfected cells; host or cells: COS-7 (COS7-human CTR Clone #2)
T1 sequence (P30988 25-474): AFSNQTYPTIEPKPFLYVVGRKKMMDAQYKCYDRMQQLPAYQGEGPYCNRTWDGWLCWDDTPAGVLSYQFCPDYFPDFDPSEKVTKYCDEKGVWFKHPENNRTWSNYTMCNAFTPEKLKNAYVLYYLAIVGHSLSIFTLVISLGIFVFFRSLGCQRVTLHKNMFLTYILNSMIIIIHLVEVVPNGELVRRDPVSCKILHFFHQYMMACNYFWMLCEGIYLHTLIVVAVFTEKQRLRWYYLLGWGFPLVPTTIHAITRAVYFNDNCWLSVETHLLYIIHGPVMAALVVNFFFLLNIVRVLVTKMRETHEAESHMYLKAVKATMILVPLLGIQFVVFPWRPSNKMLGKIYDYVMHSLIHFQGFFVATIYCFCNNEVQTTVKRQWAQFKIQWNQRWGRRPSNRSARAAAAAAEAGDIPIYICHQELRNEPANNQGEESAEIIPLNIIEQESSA
Description: Calcitonin receptor (CTR) cAMPAssay
The calcitonin receptor (CTR) belongs to the subfamily of GPCRs known as the secretin or ‘B’ family of GPCRs. Like other class B1 GPCRs, the CT receptor family is canonically coupled to Gs-mediated cAMP production, and measurement of cAMP accumulation has been the primary assay used to determine peptide selectivity and potency.
as §1, with “to create COS7-human CTR Clone #2 stable cell line. 100× concentration” for “and RAMP3, simultaneously. 100×concentration”, “COS7-human CTR Clone #2” for “COS-7/AMY3”
as §2, with “#62AM4PEC). […] cAMP-d2 working” for “#62AM4PEC). 10 μL cAMP-d2 working”

human calcitonin receptor (CTR) and RAMP3 (AMY3), sequence (O60896 24-148, one chain of several): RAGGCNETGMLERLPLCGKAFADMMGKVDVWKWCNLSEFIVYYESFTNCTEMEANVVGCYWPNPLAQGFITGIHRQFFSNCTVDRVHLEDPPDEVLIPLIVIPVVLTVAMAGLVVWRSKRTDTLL

Row | Compound | EC50 [1] | EC50 [2]
1 | Cc1nnc(-c2c(CCC3CCOCC3)nc3c(c2-c2cc4ccnc(N[C@@H]5CCc6ncccc65)c4s2)C(=O)N2CCC[C@@H]32)o1 [Compound 64, (S)-4-(7-(((R)-6,7-dihydro-5H-cyclopenta[b]pyridin-5-yl)amino)thieno[2,3-c]pyridin-2-yl)-3-(5-methyl-1,3,4-oxadiazol-2-yl)-2-(2-(tetrahydro-2H-pyran-4-yl)ethyl)-7,8,9,9a-tetrahydro-5H-pyrido[2,3-a]pyrrolizin-5-one] | 306 nM | 25 nM
2 | Cc1nnc(-c2c(CCC3CCOCC3)nc3c(c2-c2ccc4c(c2)oc(=O)n4Cc2ccc(C#N)cn2)S(=O)(=O)N2CCC[C@@H]32)o1 [Compound 127, 6-[(6-{(2S)-10-(5-methyl-1,3,4-oxadiazol-2-yl)-7,7-dioxo-11-[2-(tetrahydro-2H-pyran-4-yl)ethyl]-7λ^6-thia-6,12-diazatricyclo[6.4.0.0^2,6]dodeca-1(12),8,10-trien-9-yl}-2-oxo-1,3-benzoxazolidin-3-yl)methyl]nicotinonitrile] | 209 nM | 3.86 nM
3 | Cc1nnc(-c2c(CC3COc4cc(F)ccc43)nc3c(c2-c2ccc(C(=O)NCc4ccc(F)c(F)c4)s2)C(=O)N2CCC[C@@H]32)o1 (stereo partly drawn) [Compound 67, 5-[(9aS)-2-[(6-fluoro-2,3-dihydrobenzofuran-3-yl)methyl]-3-(5-methyl-1,3,4-oxadiazol-2-yl)-5-oxo-7,8,9,9a-tetrahydropyrido[2,3-a]pyrrolizin-4-yl]-N-[(3,4-difluorophenyl)methyl]thiophene-2-carboxamide] | 412 nM | 22 nM
4 | Cc1nnc(-c2c(CCC3CC(C)OC(C)C3)nc3c(c2-c2cc4ccnc(N[C@@H]5CCc6ncccc65)c4s2)S(=O)(=O)CC3C(C)C)o1 (stereo partly drawn) [Compound 136, N—(R)-4-aza-1-indanyl(2-(5-[2-(2,6-dimethyltetrahydro-2H-pyran-4-yl)ethyl]-3-isopropyl-6-(5-methyl-1,3,4-oxadiazol-2-yl)-1,1-dioxo-1λ^6-thia-4-aza-7-indanyl}-1-thia-6-aza-7-indenyl)amine] | 309 nM | 34.9 nM
5 | Cc1cc(-c2c(CCC3CCOCC3)nc3c(c2-c2ccc4c(c2)oc(=O)n4Cc2ncc(Cl)cc2F)C(=O)N2CCC[C@@]32C)ccn1 [Compound 148, 6-((2S)-2-methyl-10-(2-methyl-4-pyridyl)-7-oxo-11-[2-(tetrahydro-2H-pyran-4-yl)ethyl]-6,12-diazatricyclo[6.4.0.0,^1I]dodeca-1(12),8,10-trien-9-yl}-3-[(5-chloro-3-fluoro-2-pyridyl)methyl]-1,3-benzoxazol-2(3H)-one] | 839 nM | 65.1 nM
6 | Cc1nnc(-c2c(CCC3CCOCC3)nc3c(c2-c2cc4ccnc(Nc5ccc(F)c(F)c5)c4s2)S(=O)(=O)CC3C(C)C)o1 (stereo not shown) [Compound 137] | 1970 nM | 276 nM
7 | Cc1nnc(-c2c(CCC3CCOCC3)nc3c(c2-c2cc4ncnc(N[C@@H]5CCc6ncccc65)c4s2)S(=O)(=O)CC3C(C)C)o1 (stereo partly drawn) [Compound 89, N—(R)-4-aza-1-indanyl(2-(3-isopropyl-6-(5-methyl-1,3,4-oxadiazol-2-yl)-1,1-dioxo-5-[2-(tetrahydro-2H-pyran-4-yl)ethyl]-1λ^6-thia-4-aza-7-indanyl}-1-thia-4,6-diaza-7-indenyl)amine] | 587 nM | 42.9 nM
8 | Cc1nnc(-c2c(CCC3CCOCC3)nc3c(c2-c2ccc4c(cnn4Cc4ccc(C#N)c(F)c4)c2)C(=O)N2CCOC[C@@H]32)o1 [Compound 105, 4-[(5-((4aR)-7-(5-methyl-1,3,4-oxadiazol-2-yl)-9-oxo-6-[2-(tetrahydro-2H-pyran-4-yl)ethyl]-1,2,4,4a-tetrahydro-9H-3-oxa-5,9a-diazafluoren-8-yl}-1H-indazol-1-yl)methyl]-2-fluorobenzonitrile] | 385 nM | 9.56 nM
9 | Cc1nnc(-c2c(CCc3ccc(F)cc3)nc3c(c2-c2ccc4c(c2)oc(=O)n4Cc2ccc(C#N)cn2)c(=O)n2n3CCC2)o1 [Compound 142, 6-[(6-{11-[2-(p-fluorophenyl)ethyl]-10-(5-methyl-1,3,4-oxadiazol-2-yl)-7-oxo-2,6,12-triazatricyclo[6.4.0.0^2,6]dodeca-1(12),8,10-trien-9-yl}-2-oxo-1,3-benzoxazol-3-yl)methyl]nicotinonitrile] | 58.9 nM | 1.23 nM
10 | Cc1nnc(-c2c(CCC3CCOCC3)nc3c(c2-c2cn4cccc(N[C@@H]5CCc6ncccc65)c4n2)S(=O)(=O)CC3C(C)C)o1 (stereo partly drawn) [Compound 88, N—(R)-4-aza-1-indanyl(2-(3-isopropyl-6-(5-methyl-1,3,4-oxadiazol-2-yl)-1,1-dioxo-5-[2-(tetrahydro-2H-pyran-4-yl)ethyl]-1λ^6-thia-4-aza-7-indanyl}-1,3a-diaza-7-indenyl)amine] | 3100 nM | 1050 nM
11 | Cc1nnc(-c2c(CCC3CCOCC3)nc3c(c2-c2cc4ccnc(N[C@@H]5CCc6ncccc65)c4s2)C(=O)N[C@H]3C(C)C)o1 [Compound 76] | 508 nM | 71 nM
12 | CC(C)C1CS(=O)(=O)c2c1nc(CCC1CCOCC1)c(-c1nnc(N)o1)c2-c1cc2ccnc(N[C@@H]3CCc4ncccc43)c2s1 (stereo partly drawn) [Compound 120, 7-{7-[(R)-4-aza-1-indanylamino]-1-thia-6-aza-2-indenyl}-6-(5-amino-1,3,4-oxadiazol-2-yl)-3-isopropyl-5-[2-(tetrahydro-2H-pyran-4-yl)ethyl]-1λ^6-thia-4-aza-1,1-indandione] | 55.3 nM | 10.2 nM
13 | CCc1nc2c(c(-c3ccc4c(c3)OC(C)(C)C(=O)N4Cc3ccc(F)cn3)c1-c1nnc(C)o1)C(=O)N1CC3CC21C3 [Compound 161, 7-[4-ethyl-5-(5-methyl-1,3,4-oxadiazol-2-yl)-8-oxo-3,9-diazatetracyclo[9.1.1.01, 0.2,1]trideca-2,4,6-trien-6-yl]-4-[(5-fluoro-2-pyridyl)methyl]-2,2-dimethyl-4H-1,4-benzoxazin-3(2H)-one] | 5380 nM | 226 nM
14 | Cc1cc(-c2c(CCC3CCOCC3)nc3c(c2-c2ccc4c(c2)oc(=O)n4Cc2ccc(C#N)c(F)c2)c(=O)n2n3CCC2)ccn1 [Compound 151, 2-fluoro-4-[(6-(10-(2-methyl-4-pyridyl)-7-oxo-11-[2-(tetrahydro-2H-pyran-4-yl)ethyl]-2,6,12-triazatricyclo[6.4.0.0^2,6]dodeca-1(12),8,10-trien-9-yl}-2-oxo-1,3-benzoxazol-3-yl)methyl]benzonitrile] | 73 nM | 5.12 nM
